Experimental data taken from article PMC7821958, “Synthesis, in vitro enzyme activity and molecular docking studies of new benzylamine-sulfonamide derivatives as selective MAO-B inhibitors” (Journal of Enzyme Inhibition and Medicinal Chemistry, 2020).
Where two headings read alike, the source gives them in different places.

How the values were obtained:
hMAO-A = target: T1, hMAO-A (Homo sapiens, UniProt P21397); test: MAO-A inhibition assay, fluorometric (Amplex Red / horseradish peroxidase-coupled); assay type: biochemical; conditions: read-out: MAO-A % Inhibition
T1 construct: purchased Sigma-Aldrich (Steinheim, Germany)
T1 sequence (P21397 1-527): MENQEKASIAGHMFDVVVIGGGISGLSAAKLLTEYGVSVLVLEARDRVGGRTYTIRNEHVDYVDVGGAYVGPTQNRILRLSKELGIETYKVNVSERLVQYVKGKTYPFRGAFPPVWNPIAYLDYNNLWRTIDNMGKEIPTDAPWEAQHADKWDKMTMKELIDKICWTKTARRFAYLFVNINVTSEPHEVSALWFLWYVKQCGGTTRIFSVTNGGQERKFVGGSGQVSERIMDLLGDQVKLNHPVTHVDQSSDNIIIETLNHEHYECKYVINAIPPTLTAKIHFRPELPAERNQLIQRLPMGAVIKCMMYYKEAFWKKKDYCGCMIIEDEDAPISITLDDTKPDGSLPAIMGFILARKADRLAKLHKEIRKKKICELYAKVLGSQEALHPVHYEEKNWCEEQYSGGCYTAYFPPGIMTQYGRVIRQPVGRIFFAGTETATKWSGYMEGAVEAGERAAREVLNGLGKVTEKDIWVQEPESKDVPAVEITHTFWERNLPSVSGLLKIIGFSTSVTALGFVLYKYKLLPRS
Description: A Biotek Precision XS robotic system (USA) was used for all pipetting operations. Measurements were performed with the use of BioTek-Synergy H1 microplate reader (USA) based upon the fluorescence generated (excitation, 535 nm, emission, 587 nm) over a 30 min period, in which the fluorescence increased linearly.
Enzymatic assay was performed according to recent method pronounced by our research group[17]^,[20–22]. Control, blank and all concentrations of obtained compounds were tested in quadruplicate and inhibition percent was calculated with following equation: % Inhibition=(FCt2 − FCt1) − (FIt2 − FIt1)/FCt2 − FCt1 × 100
FCt2: Fluorescence of a control well measured at t2 time, FCt1: Fluorescence of a control well measured at […]: Fluorescence of an inhibitor well measured at t2 time, FIt1: Fluorescence of an inhibitor well measured at t1 time,
The IC50 values were calculated using a dose-response curve achieved by plotting the percentage inhibition versus the log concentration using GraphPad ‘PRISM’ software (version 5.0).
All the obtained benzylamine-sulphonamide derivatives 4a–4u were investigated for their inhibitory activity against MAO isoforms using a previously described in vitro fluorometric method, which is based on the detection of H2O2 in a horseradish peroxidase-coupled reaction using 10-acetyl-3,7-dihydroxyphenoxazine (Amplex Red reagent)[17]^,[20–22].
The assay was carried out in two steps. […].

hMAO-B = target: T2, hMAO-B (Homo sapiens, UniProt P27338); test: MAO-B inhibition assay, fluorometric (Amplex Red / horseradish peroxidase-coupled); assay type: biochemical; conditions: for inhibition at 1000 µM: 10^−3 M; for inhibition at 100 µM: 10^−4 M; for inhibition at 10 µM: 10^−5 M; for inhibition at 1 µM: 10^−6 M; for inhibition at 0.1 µM: 10^−7 M; for inhibition at 0.01 µM: 10^−8 M; for inhibition at 0.001 µM: 10^−9 M; for IC50: Table 2, mean ± SD, read-out: IC50 against MAO-B;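 on all read-outs here: fluorescence read at Ex 535 nm and Em 587 nm over 30 min, linear phase, inhibition relative to uninhibited control wells, IC50 from log concentration–response curves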
T2 construct: purchased Sigma-Aldrich (Steinheim, Germany)
T2 sequence (P27338 1-520): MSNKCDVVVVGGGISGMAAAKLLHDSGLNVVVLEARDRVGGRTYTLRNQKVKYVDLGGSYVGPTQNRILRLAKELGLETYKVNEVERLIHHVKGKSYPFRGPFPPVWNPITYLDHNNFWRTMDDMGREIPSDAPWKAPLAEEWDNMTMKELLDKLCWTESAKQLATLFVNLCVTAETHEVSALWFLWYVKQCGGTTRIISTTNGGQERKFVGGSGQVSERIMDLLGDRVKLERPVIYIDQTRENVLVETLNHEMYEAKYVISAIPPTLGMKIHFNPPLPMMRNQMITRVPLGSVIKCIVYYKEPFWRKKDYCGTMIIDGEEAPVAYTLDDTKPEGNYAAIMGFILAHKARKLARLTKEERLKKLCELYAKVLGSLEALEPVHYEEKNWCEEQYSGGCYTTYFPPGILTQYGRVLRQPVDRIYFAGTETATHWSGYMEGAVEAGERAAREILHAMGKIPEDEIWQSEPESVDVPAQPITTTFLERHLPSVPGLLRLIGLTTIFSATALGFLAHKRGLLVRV
Description: FCt2: Fluorescence of a control well measured at t2 time, FCt1: Fluorescence of a control well measured at t2 time, FIt2: Fluorescence of an inhibitor well measured at t2 time, FIt1: Fluorescence of an inhibitor well measured at t1 time,

inhibition at 1000 µM (hMAO-A; 10^−3 M) [%] | inhibition at 100 µM (hMAO-A; 10^−4 M) [%] | inhibition at 1000 µM (hMAO-B) [%] | inhibition at 100 µM (hMAO-B) [%] | inhibition at 10 µM (hMAO-B) [%] | inhibition at 1 µM (hMAO-B) [%] | inhibition at 0.1 µM (hMAO-B) [%] | inhibition at 0.01 µM (hMAO-B) [%] | inhibition at 0.001 µM (hMAO-B) [%] | IC50 (hMAO-B) [nM] | melting point [°C] | SMILES | inhibition at 100 µM (hMAO-A) [%] | inhibition at 1000 µM (hMAO-A) [%]
46 ± 0.863 | 30.1 ± 0.627 | 90.6 ± 1.39 | 83.3 ± 1.26 | 76.3 ± 1.11 | 73.2 ± 1.06 | 48.6 ± 0.957 | 32.5 ± 0.721 | 20.9 ± 0.623 | 146 ± 6 |  | NS(=O)(=O)c1ccc(N(Cc2ccccc2)C(=O)CSc2ccccn2)cc1 [Compound 4f, N-Benzyl-2-(pyridin-2-ylthio)-N-(4-sulfamoylphenyl)acetamide] |  | 
37.6 ± 0.714 | 20.1 ± 0.621 | 90.3 ± 1.3 | 86.3 ± 1.29 | 82.5 ± 1.11 | 76.9 ± 1.27 | 45.3 ± 0.974 | 32.6 ± 0.728 | 20.4 ± 0.683 | 188 ± 8 | 201 to 203 | Cn1cnnc1SCC(=O)N(Cc1ccccc1)c1ccc(S(N)(=O)=O)cc1 [Compound 4b, N-Benzyl-2-((4-methyl-4H-1,2,4-triazol-3-yl)thio)-N-(4-sulfamoylphenyl)acetamide] |  | 
39.1 ± 0.821 | 20.3 ± 0.608 | 96.2 ± 1.1 | 48.8 ± 0.879 |  |  |  |  |  |  | 88 to 90 | NS(=O)(=O)c1ccc(N(Cc2ccccc2)C(=O)CSc2nc3ccccc3s2)cc1 [Compound 4h, 2-(Benzothiazol-2-ylthio)-N-benzyl-N-(4-sulfamoylphenyl)acetamide] |  | 
47.2 ± 0.979 | 32.2 ± 0.621 | 94.7 ± 1.34 | 47.3 ± 0.963 |  |  |  |  |  |  | 82 to 84 | NS(=O)(=O)c1ccc(N(Cc2ccccc2)C(=O)CSc2nc3ccccc3o2)cc1 [Compound 4g, 2-(Benzoxazol-2-ylthio)-N-benzyl-N-(4-sulfamoylphenyl)acetamide] |  | 
39.3 ± 0.701 | 30.3 ± 0.582 | 79.5 ± 0.957 | 39 ± 0.702 |  |  |  |  |  |  | 153 to 155 | Cc1ccc(CN(C(=O)CSc2nccn2C)c2ccc(S(N)(=O)=O)cc2)cc1 [Compound 4k, 2-((1-Methyl-1H-imidazol-2-yl)thio)-N-(4-methylbenzyl)-N-(4-sulfamoylphenyl)acetamide] |  | 
35.1 ± 0.989 | 26.5 ± 0.856 | 92.3 ± 1.11 | 47 ± 0.958 |  |  |  |  |  |  | 137 to 139 | Cn1ccnc1SCC(=O)N(Cc1ccccc1)c1ccc(S(N)(=O)=O)cc1 [Compound 4a, N-Benzyl-2-((1-methyl-1H-imidazol-2-yl)thio)-N-(4-sulfamoylphenyl)acetamide] |  | 
38.2 ± 0.734 | 33 ± 0.697 | 72.7 ± 1 | 40.3 ± 0.835 |  |  |  |  |  |  | 170 to 172 | Cc1ccc(CN(C(=O)CSc2nc3ccccc3s2)c2ccc(S(N)(=O)=O)cc2)cc1 [Compound 4s, 2-(Benzothiazol-2-ylthio)-N-(4-methylbenzyl)-N-(4-sulfamoylphenyl)acetamide] |  | 
37.4 ± 0.85 | 31.1 ± 0.729 | 76.3 ± 1 | 40.1 ± 0.799 |  |  |  |  |  |  | 178 to 180 | Cc1ccc(CN(C(=O)CSc2nnc(C)s2)c2ccc(S(N)(=O)=O)cc2)cc1 [Compound 4m, 2-((5-Methyl-1,3,4-thiadiazol-2-yl)thio)-N-(4-methylbenzyl)-N-(4-sulfamoylphenyl)acetamide] |  | 
40.2 ± 0.97 | 21.5 ± 0.632 | 72.2 ± 0.959 | 38.3 ± 0.638 |  |  |  |  |  |  |  | Cc1ccc(CN(C(=O)CSc2nnnn2C)c2ccc(S(N)(=O)=O)cc2)cc1 [Compound 4n, 2-((1-Methyl-1H-tetrazol-5-yl)thio)-N-(4-methylbenzyl)-N-(4-sulfamoylphenyl)acetamide] |  | 

Second part, the compound before the results:

SMILES | inhibition at 1000 µM (hMAO-A; 10^−3 M) [%] | inhibition at 100 µM (hMAO-A; 10^−4 M) [%] | inhibition at 1000 µM (hMAO-B) [%] | inhibition at 100 µM (hMAO-B) [%] | inhibition at 10 µM (hMAO-B) [%] | inhibition at 1 µM (hMAO-B) [%] | inhibition at 0.1 µM (hMAO-B) [%] | inhibition at 0.01 µM (hMAO-B) [%] | inhibition at 0.001 µM (hMAO-B) [%] | IC50 (hMAO-B) [nM] | melting point [°C] | inhibition at 100 µM (hMAO-A) [%] | inhibition at 1000 µM (hMAO-A) [%]
Cc1nnc(SCC(=O)N(Cc2ccccc2)c2ccc(S(N)(=O)=O)cc2)s1 [Compound 4c, N-Benzyl-2-((5-methyl-1,3,4-thiadiazol-2-yl)thio)-N-(4-sulfamoylphenyl)acetamide] | 40.6 ± 0.749 | 24.1 ± 0.61 | 91.1 ± 1.25 | 48.3 ± 0.855 |  |  |  |  |  |  | 164 to 166 |  | 
NS(=O)(=O)c1ccc(N(Cc2ccccc2)C(=O)CSc2nnnn2-c2ccccc2)cc1 [Compound 4e, N-Benzyl-2-((1-phenyl-1H-tetrazol-5-yl)thio)-N-(4-sulfamoylphenyl)acetamide] | 41.5 ± 0.899 | 28 ± 0.714 | 90.1 ± 1.01 | 48.4 ± 0.721 |  |  |  |  |  |  |  |  | 
Cc1ccc(CN(C(=O)CSc2nnnn2-c2ccccc2)c2ccc(S(N)(=O)=O)cc2)cc1 [Compound 4o, N-(4-Methylbenzyl)-2-((1-phenyl-1H-tetrazol-5-yl)thio)-N-(4-sulfamoylphenyl)acetamide] | 44.2 ± 0.877 | 28.7 ± 0.509 | 68.3 ± 0.824 | 30.3 ± 0.721 |  |  |  |  |  |  |  |  | 
Cc1ccc(CN(C(=O)CSc2ccccn2)c2ccc(S(N)(=O)=O)cc2)cc1 [Compound 4p, N-(4-Methylbenzyl)-2-(pyridin-2-ylthio)-N-(4-sulfamoylphenyl)acetamide] | 45.2 ± 0.971 | 24.9 ± 0.792 | 70.5 ± 1.07 | 35.6 ± 0.622 |  |  |  |  |  |  | 121 to 123 |  | 
C#CCN(C)CCCOc1ccc(Cl)cc1Cl [Clorgiline, reference compound] |  |  |  |  |  |  |  |  |  |  |  | 98.3 ± 1.82 | 99.4 ± 1.96
Cc1ccc(CN(C(=O)CSc2nncn2C)c2ccc(S(N)(=O)=O)cc2)cc1 [Compound 4l, 2-((4-Methyl-4H-1,2,4-triazol-3-yl)thio)-N-(4-methylbenzyl)-N-(4-sulfamoylphenyl)acetamide] | 42.3 ± 0.63 | 25.2 ± 0.712 | 74.2 ± 1.05 | 43.8 ± 0.882 |  |  |  |  |  |  | 229 to 231 |  | 
COc1ccc2sc(SCC(=O)N(Cc3ccccc3)c3ccc(S(N)(=O)=O)cc3)nc2c1 [Compound 4j, N-Benzyl-2-((5-methoxybenzothiazol-2-yl)thio)-N-(4-sulfamoylphenyl)acetamide] | 48.2 ± 0.825 | 37.4 ± 0.679 | 90.8 ± 1.25 | 45.1 ± 0.958 |  |  |  |  |  |  |  |  | 
Cc1ccc(CN(C(=O)CSc2nc3ccccc3o2)c2ccc(S(N)(=O)=O)cc2)cc1 [Compound 4r, 2-(Benzoxazol-2-ylthio)-N-(4-methylbenzyl)-N-(4-sulfamoylphenyl)acetamide] | 42.4 ± 0.821 | 32.7 ± 0.697 | 67.5 ± 0.957 | 33.1 ± 0.798 |  |  |  |  |  |  | 148 to 150 |  | 
Cn1nnnc1SCC(=O)N(Cc1ccccc1)c1ccc(S(N)(=O)=O)cc1 [Compound 4d, N-Benzyl-2-((1-methyl-1H-tetrazol-5-yl)thio)-N-(4-sulfamoylphenyl)acetamide] | 39.2 ± 0.65 | 29.5 ± 0.489 | 91.6 ± 1.25 | 79.7 ± 1.46 | 76.2 ± 1.06 | 70.9 ± 1.01 | 47.5 ± 0.957 | 29.7 ± 0.723 | 15.2 ± 0.602 | 127 ± 5 |  |  | 
COc1ccc2sc(SCC(=O)N(Cc3ccc(C)cc3)c3ccc(S(N)(=O)=O)cc3)nc2c1 [Compound 4u, 2-((5-Methoxybenzothiazol-2-yl)thio)-N-(4-methylbenzyl)-N-(4-sulfamoylphenyl)acetamide] | 36.8 ± 0.678 | 29.9 ± 0.539 | 65.1 ± 0.985 | 36 ± 0.726 |  |  |  |  |  |  |  |  | 
